In patent US20260035753A1, “METHODS OF DETERMINING BACTERIA AND MANUFACTURING A FIBROUS WEB AND TOOLS AND USES RELATED THERETO” (KEMIRA OYJ, priority 2020, published 2026):

Tests used:
Thermicanus [1] = assay: Microbe control test in recycled fiber pulp (white water + recycled packaging board), 24 h contact time; format: cell-based; details: after 24 h at +50° C.; NGS sequencing and total bacterial qPCR; control 3.2*10^7; performic acid 14 mg/l, monochloramine 15 mg/l, mixture in total 15 mg/l, mixture in total 8 mg/l + zinc 7 mg/l
Description: White water from a liner machine using recycled fiber was taken and dry, brown, recycled packaging board was homogenized with the water so that the final consistency of fibers was 2.0%. The pulp was divided into portions and biocides and enzyme inhibitor (zinc) were added into the bottles according to the Table 2. pH of the pulp at the beginning of the test was 7.75 and ORP +175 mV. After this the bottles were incubated at +50° C. for 24 hours. At 24 h pH and ORP were measured and samples for DNA analysis were collected. The amount of Thermicanus was quantified as described in examples 1 and 2.
Biocide and enzyme inhibitor treated samples had clearly higher pH and ORP than control sample. Said biocide and/or enzyme inhibitor treatments also decrease the amount of bacteria belonging to the family Thermicanaceae or genus Thermicanus: The control sample contained 3.2*10^7 Thermicanus cells/ml, and the treated samples>90% less, 1.2-2.2*10^6 cells/ml. Thus, in the treated samples both the physical conditions were better and the amount of Thermicanus was lower than in the control sample.

Thermicanus [2] = assay: Biocide trial on a paper machine using recycled fiber; Thermicanus quantified with specific qPCR
Description: The best primer sequences for a qPCR assay specific for Thermicanus were 5′-[…]-3′ (SEQ ID NO: 2) and 5′-[…]-3′ (SEQ ID NO: 3). Allowing maximum 2 mismatches, these primers detect no 16S rRNA gene of other bacterial genera. The length of the PCR product is 236 bp for Thermicanus aegyptius, the only Thermicanus species described thus far. Specific amplification (one peak in qPCR melt curve analysis) was produced from Thermicanus genomic DNA at annealing temperatures 59-63° C. in qPCR master mix with 2.2 mM Mg^2+ (50 mM salt) and SYBR Green.
Besides in silico verifications, the validity of the Thermicanus qPCR assay with the novel primers was verified with 16 board process DNA samples from RCF pulp and white water (FIG. 1). Samples were selected based on sequencing results to be taxonomically diverse, include wide range of Thermicanus, and include communities with close relatives of Thermicanus including Geobacillus (Bacillaceae). SYBR Green qPCR detection chemistry was used with hot-start qPCR mastermix on BioRad CFX96 cycler or thermal cycler, using annealing temperature of 61° C. for stringent hybridization. The Pearson correlation between the NGS and qPCR-derived Thermicanus abundance was 0.993, when total bacteria were quantified based on genomic DNA concentration (FIG. 1A), and 0.997, when total bacteria were quantified based on general bacterial qPCR (FIG. 1B). These very high correlations verify the specificity and validity of the novel Thermicanus qPCR primers for the quantification of Thermicanus in board process samples.
A biocide trial on a paper machine using recycled fiber was ran with monochloramine (MCA). Samples from stock storage and cloudy white water were taken 7 months and 1 day before starting the trial and 3 weeks after starting the MCA trial. The amount of Thermicanus was quantified with Thermicanaceae-specific qPCR as described in Example 3. MCA trial decreased Thermicanus densities in stock storage and white water by ≥99%.

Row | SMILES | Thermicanus, cells/ml (Thermicanus [1]) | Thermicanus, white water, cells/ml (Thermicanus [2]; cloudy white water, 3 weeks after start of MCA trial, before trial 2.7*10^8 (7 months) and 2.1*10^8 (1 day)) | decrease of Thermicanus densities (Thermicanus [2]; stock storage and white water, 3 weeks after start of MCA trial versus before trial) | Thermicanus, stock storage, cells/ml (Thermicanus [2]; stock storage, 3 weeks after start of MCA trial, before trial 5.8*10^8 (7 months) and 3.9*10^8 (1 day))
1 | NCl [Monochloramine, monochloramine] | 1.2*10^6 cells/ml | 7.5*10^5 cells/ml | ≥ 99% | 3.8*10^6 cells/ml
2 | O=COO [Performic acid] | 2.0*10^6 cells/ml | – | – | –
